This is an account of results in patent US7807675B2, “Hyaluronic acid-methotrexate conjugate” (priority 2004, dated 2010).

Experiment [1] concerns mBSA-induced monoarthritis model. Description: Suppressive effect on knee joint swelling in mBSA-induced monoarthritis model. It is filed as in vivo, rat. The conditions noted are these: for AUC (% of control) (mean ± SEM): AUC of knee joint swelling, control = HA-treated group, LEW/Crj rat, 50 μL into right knee joint 7 and 1 day before and 7 days after inducing arthritis. As to the method:
An in vivo synovitis-suppressing effect of each HA-MTX conjugate of the invention was assessed on the basis of a suppressive effect on knee joint swelling in a methylated bovine serum albumin (mBSA)-induced monoarthritis model of rat. Since the mBSA-induced arthritis model employed in this experimental example is widely used as an antigen-induced arthritis model, and known to develop synovitis (Sven E. Andersson, et al., The Journal of Rheumatology (1998) 25: 9, 1772-7), the in vivo knee joint swelling-suppressing effect observed in this model conceivably represents a synovitis-suppressing effect. The compounds of the invention suppressing synovitis in vivo are useful as therapeutic drugs for joint diseases accompanied by synovitis (RA, OA, and the like).
The animal used was the LEW/Crj rat (6-week old male, from Charles River Laboratories Japan, Inc.). Into the flank of the rat was subcutaneously injected 0.5 mL of an emulsion prepared from a 2 mg/mL mBSA (Calbiochem) aqueous solution and an equal amount of Freund's complete adjuvant (Difco) 21 and 14 days before inducing arthritis. The arthritis was induced by administering 50 μL of a 2 mg/mL mBSA aqueous solution into the right knee joint. The left knee joint was untreated, and served as control in each individual. Each test substance (sterile aqueous solution) and the control drug hyaluronic acid were each administered into the right knee joint in an amount of 50 μL 7 and 1 day before and 7 days after inducing arthritis.
The determination of knee joint swelling involved measuring the widths of both knee joints with calipers to define the left/right difference (right knee diameter−left knee diameter) as a knee joint swelling. The width of each knee joint was measured at a frequency of twice a week from immediately before inducing arthritis to two weeks later to calculate AUC (an abbreviation for Area Under the Curve; here, it means an area under a curve with time for the joint swelling) from the transition thereof with time. At each measurement, the mean and standard deviation of AUC were calculated to perform an unpaired t-test between each test substance-treated group and the HA-treated group, and significant difference was judged to be present if the probability level is less than 5%. Statistical analysis used SAS version 6.12 or 8.02 (SAS Institute Japan). In addition, the AUC of each test substance was calculated, using that in the HA-treated group as a control, as a relative value (% of control) therefor.
To verify the usefulness of the HA-MTX conjugate of the invention, the suppressive effect on joint swelling was compared, in accordance with the method of Example 3, among: 1) a group treated with the HA-MTX conjugate (sterile aqueous solution) prepared in Example 3-10; 2) a group treated with a solution containing MTX of an amount equal to that of MTX contained in the HA-MTX conjugate; and 3) a group of treated with a mixture (HA+MTX) of MTX and hyaluronic acid (HA) of amounts equal to those contained in the conjugate. HA and vehicle (2 mM phosphate buffer, 0.9% NaCl) was used as controls. In this Experimental Example, Suvenyl (SVE, Chugai Pharmaceutical Co., Ltd.) was used as HA. The time course of knee joint swelling in this test is shown in FIG. 1, and the AUC thereof in FIG. 2.

Experiment [2] has as its system human synovial cells derived from RA patients (HFLS-RA). Description: Suppressive effect on proliferation of human synovial cells (HFLS-RA) stimulated by TNF-α. The experiment is classed as cell-based. The conditions noted are these: TNF-α 10 ng/mL, 5 days, [3H]-deoxyuridine uptake, concentration calculated as MTX. An excerpt:
(§1) Effects of the HA-MTX conjugates of the invention on cell proliferation induced by TNF-α stimulation were examined using human synovial cells (HFLS). The main lesion in rheumatoid arthritis (RA) occurs in the synovial tissue, and one of the features of RA is known to be that synovial cells abnormally proliferate to form a granulation tissue (pannus) and thereby destroy the cartilage and bone of the joint. Secondary synovitis is also observed in osteoarthritis (OA). […] Thus, a compound inhibiting the proliferation of synovial cells stimulated by an inflammatory cytokine, TNF-α, becomes a drug for suppressing the progression of the pathologic conditions of, or for treating RA and OA.
(§2) The sterile aqueous solutions of the HA-MTX conjugates in Example 3 were used as test substances. As HFLS, human synovial cells derived from RA patients (HFLS-RA, CA404-05, Lot No.: 1493) and human synovial cells derived from OA patients (HFLS-OA, CA400-05, Lot No.: 1442) were purchased from Cell Applications Ins for use.
(§3) HFLS was seeded at 5,000 cells/well on a 96-well plate (Falcon) and cultured for 3 hours in Iscove's modified Dulbecco's medium (IMDM) containing 5% FBS and 1× Antibiotic-Antimycotic (GIBOC). After cellular attachment, TNF-α (final concentration: 10 ng/mL) and each HA-MTX conjugate at each concentration was added, followed by cultivation for 5 days. Two days before the end of culture, was added 37 kBq/well of [^3H]-deoxyuridine in the cells (MORAVEK), followed by determining the uptake quantity (radioactivity) of [^3H]-deoxyuridine using a scintillation counter. Cells were recovered by unsticking them with 0.05% trypsin-0.2% EDTA.
(§4) Radioactivity determined in each of the experiments with each test substance was calculated as a relative value (% of control), using, as control, radioactivity in the group of cells cultured without adding any test substance. Since the concentration of a free carboxyl group is 2.49×10^−3 mol/L (1 g/401/L; 401 is the molecular weight of N-acetylglucosamine+glucuronic acid) for each 1 mg/mL of hyaluronic acid, the MTX concentration in each HA-MTX was calculated by multiplying the value by the conjugation rate of MTX. (For 1 mg/mL of HA-MTX conjugate with a conjugation rate of MTX of 1%, the concentration of MTX was 2.49×10^−5 mol/L) The value obtained was used to calculate the activity of inhibiting cell proliferation (IC50 value) by a 4-parameter logistic method (analysis software: GraphPad Prism 3.02 and 4.02).

Experiment [3] relates to human synovial cells derived from OA patients (HFLS-OA). Description: Suppressive effect on proliferation of human synovial cells (HFLS-OA) stimulated by TNF-α. It is filed as cell-based. The conditions noted are these: TNF-α 10 ng/mL, 5 days, [3H]-deoxyuridine uptake, concentration calculated as MTX.
Excerpt: as §1, §2, §3, §4

By IC50 is commonly meant the midpoint of a concentration-inhibition curve.

Turning to “MTX-α-PhePhe-NHC10H20O3NHCO—O—[HA] [Example 3-3]”, the “AUC (% of control) (mean ± SEM)” value in experiment [1] is on record as 59.7 ± 5.4 % of control. In addition, in experiment [2], the IC50 was 96 nM.

Turning to “MTX-α-PhePhe-NHC10H20O3NHCO—O—[HA] [Example 3-8]”, the IC50 in experiment [3] is 140 nM.

For the compound “MTX-α-PheGly-NHC10H20O3NHCO—O—[HA] [Example 3-15]”, the “AUC (% of control) (mean ± SEM)” value in experiment [1] is 50.1 ± 4.9 % of control. Also, the IC50 in experiment [3] was 450 nM.

Turning to “MTX-α-PhePhe-NHC10H20O3NHCO—O—[HA] [Example 3-13]”, the “AUC (% of control) (mean ± SEM)” value in experiment [1] is 42.0 ± 4.5 % of control. The half-inhibitory concentration (IC50) in experiment [3] is 290 nM.

As for “MTX-α-PhePhe-NHC10H20O3NHCO—O—[HA] [Example 3-11]”, the “AUC (% of control) (mean ± SEM)” value in experiment [1] was 67.1 ± 8.0 % of control. In experiment [3], the IC50 was 33000 nM.

For the compound `CN(Cc1cnc2nc(N)nc(N)c2n1)c1ccc(C(=O)N[C@@H](CCC(=O)O)C(=O)O)cc1` [MTX alone, methotrexate], the “alleviating effect on synovitis” value in experiment [1] (Experimental Example 4, arthritis model, amounts equal to those in the conjugate of Example 3-10) was “neither MTX alone nor the mixture of HA and MTX had a sufficient alleviating effect on synovitis”. For the same compound, the IC50 in experiment [2] was 110 nM; in experiment [3] it was 310 nM.

Take “MTX-α-PhePhe-NHC10H20O3NHCO—O—[HA] [Example 3-12]”: the “AUC (% of control) (mean ± SEM)” value in experiment [1] was 49.2 ± 1.2 % of control. Moreover, the IC50 in experiment [3] is 2000 nM.

As to “MTX-α-PhePhe-NHC10H20O3NHCO—O—[HA] [Example 3-4]”, the “AUC (% of control) (mean ± SEM)” value in experiment [1] is 53.6 ± 5.4 % of control.

“MTX-α-PhePhe-NHC10H20O3NHCO—O—[HA] [Example 3-7]”: the “AUC (% of control) (mean ± SEM)” value in experiment [1] is on record as 47.7 ± 4.3 % of control. Also, the IC50 in experiment [3] is 410 nM.

Regarding “MTX-α-PhePhe-NHC10H20O3NHCO—O—[HA] [Example 3-14]”, in experiment [3], the IC50 was 9700 nM.

For the compound “MTX-α-Ile-NHC10H20O3NHCO—O—[HA] [Example 3-16]”, the “AUC (% of control) (mean ± SEM)” value in experiment [1] is 65.5 ± 4.4 % of control. In addition, the IC50 in experiment [3] was 230 nM.

Take “MTX-α-PhePhe-NHC10H20O3NHCO—O—[HA] [Example 3-1]”: the IC50 in experiment [2] was 1200 nM.

For the compound “MTX-α-PhePhe-NHC10H20O3NHCO—O—[HA] [Example 3-2]”, in experiment [2], the IC50 is 460 nM.

In the case of “MTX-α-PhePhe-NHC10H20O3NHCO—O—[HA] [Example 3-6]”, the “AUC (% of control) (mean ± SEM)” value in experiment [1] is on record as 69.7 ± 7.2 % of control. For the same compound, in experiment [3], the IC50 is 1400 nM.

On to “MTX-α-PhePhe-NHC10H20O3NHCO—O—[HA] [Example 3-10]”, for which the “AUC (% of control) (mean ± SEM)” value in experiment [1] is 42.3 ± 4.8 % of control. Also, the “suppressive effect on the joint swelling” value in experiment [1] (Experimental Example 4, compared to MTX alone or the mixture of MTX and HA in equal amounts, FIGS. 1 and 2) is “markedly strong suppressive effect on the joint swelling in the arthritis model compared to that of MTX alone or the mixture of MTX and HA”. Besides, the IC50 in experiment [3] is 77 nM.

Regarding “MTX-α-PhePhe-NHC10H20O3NHCO—O—[HA] [Example 3-5]”, the “AUC (% of control) (mean ± SEM)” value in experiment [1] is recorded as 46.6 ± 4.0 % of control.

As to “MTX-α-PhePhe-NHC10H20O3NHCO—O—[HA] [Example 3-9]”, the “AUC (% of control) (mean ± SEM)” value in experiment [1] is 48.4 ± 2.9 % of control. In addition, in experiment [3], the IC50 is 180 nM.
